US20240132485A1, “HETEROCYCLIC CULLIN RING UBIQUITIN LIGASE COMPOUNDS AND USES THEREOF” (CEMM - FORSCHUNGSZENTRUM FÜR MOLEKULARE MEDIZIN GMBH, priority 2020, published 2024)

Key:
KBM7_WT cells = test: Cell viability assay (CellTiter Glo), KBM7 wild-type, 3-day treatment; type: cell-based; settings: Homo sapiens, KBM-7, 72 h, read-out: LC50 KBM7_WT
Description: (§1) KBM7^WT, UBE2M and CUL4B mutant KBM7 clones (UBE2M^mut and CUL4B^mut) were seeded at a cell density of 50,000 cells/mL in 96-well with DMSO or degraders Z1 to Z3, Z5 to Z7, Z9 to Z11, Z13 and Z14 in triplicates. Cells were treated for 3 days, after which a cell viability assay was performed (CellTiter Glo, Promega), according to manufacturer's protocol. Survival curves and IC50 values (LC50 values) were calculated by best-fit analysis of the log 10 drug concentration to fold change of drug-treated cells over DMSO-treated cells. All survival assays included technical triplicates per sample, per experiment.
(§2) Compounds, Z1 to Z3, Z5 to Z7, Z9 to Z11, Z13 and Z14, were tested for their antiproliferative effects in human leukemia cells (KBM7). These cells were either transduced with a control sgRNA (KBM7_WT), or with an sgRNA targeting UBE2M or CUL4B, leading to a hypomorph (deletion of six amino acids) with a functional impairment (UBE2M_MUT).
(§3) Indeed, 11 compounds Z1 to Z3, Z5 to Z7, Z9 to Z11, Z13 and Z14 were identified to fulfill these criteria and to stand out in terms of fold-change significance; see, e.g., FIG. 1 and Table 1. The dose ranging differential effect of these hits was assessed/validated, comparing their activity in KBM7_WT (KBM7^WT) vs UBE2_MUT and CUL4B_MUT cells (UBE2M^mut and CUL4B^mut).

UBE2M_MUT KBM7 cells = test: Cell viability assay (CellTiter Glo), UBE2M mutant KBM7 clone, 3-day treatment; type: cell-based; settings: Homo sapiens, KBM-7, 72 h, UBE2M mutant KBM7, 3-day treatment, read-out: LC50 UBE2M_MUT
Description: as §1, §2, §3

CUL4B_MUT KBM7 cells = test: Cell viability assay (CellTiter Glo), CUL4B mutant KBM7 clone, 3-day treatment; type: cell-based; settings: Homo sapiens, KBM-7, 72 h, CUL4B mutant KBM7, 3-day treatment, read-out: LC50 CUL4B_MUT
Description: as §1, §2, §3

Cyclin K = settings: cited from earlier work
[1] = biological target: Nanoluc_DDB1 (N-terminal Nanoluc luciferase, G4S linker, DDB1 (FL)) (UniProt Q16531); test: NanoBRET in HEK293T cells, 10 µM compound Example 3-48; class B = 3-4 fold increase
[2] = biological target: T1, DDB1-CDK12/Cyclin K ternary complex (Homo sapiens, UniProt Q16531+Q9NYV4); test: NanoBRET fold-change assay (HaloTag_CDK12 / NanoLuc_DDB1 in HEK293T); type: cell-based; settings: 10 μM compound, 10 minutes
T1 construct: expressed in transfected cells; host or cells: HEK293T wildtype cells, transient PEI transfection
Summary of the method: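 HEK293T cells transiently co-transfected with HaloTag_CDK12 and NanoLuc_DDB1, labelled overnight with 100 nM HaloTag 618 ligand (DMSO no-ligand control), then treated with compound at 10 μM final for 10 min at room temperature. BRET read as 460 nm donor and 647 nm acceptor emission after Nano-Glo substrate; reported as fold change.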

[3] = biological target: T1, DDB1-CDK12/Cyclin K ternary complex; test: NanoBRET EC50 assay (HaloTag_CDK12 / NanoLuc_DDB1 in HEK293T); type: cell-based; settings: for EC50 / NanoBRET EC50 Activity Class: 10-point titration from 20 μM, HEK293T; for EC50: read-out: NanoBRET EC50 Activity Class
Description: This assay measures the interaction/recruitment of CDK12/Cyclin K to DDB1, mechanistically validating the molecular glue pharmacology.
HEK293T wildtype cells are seeded 800 k cells/well (DMEM+10% FBS+1% PS) in a 6-well plate and allowed to attach for ˜7 hours followed by a transient transfection of 1.5 μg HaloTag_CDK12 Plasmid [Table 1] and 0.15 μg NanoLuc_DDB1 plasmid [Table 1] per well using PEI. Cells are incubated at 37° C., 5% CO2, harvested after 24 hours and resuspended in assay media (Opti-MEM Reduced serum media, no phenol red, 4% FBS, 1% PS). Cells are adjusted to 2.3×10^5 cells/ml and treated with HaloTag 618 Ligand at 100 nM or DMSO. 8000 cells are seeded per well in triplicates per compound in a white-walled 384-well plate, one negative control treated with DMSO instead of HaloTag 618 Ligand is seeded in triplicates and the 384-well plate is incubated at 37° C., 5% CO2 overnight. Compound stock solutions are prepared in Opti-MEM−/− (Opti-MEM I Reduced serum media, no phenol red) at 8× and used to treat the cells at a final concentration of 1× at 10 μM. Cells and compounds are incubated for 10 minutes at room temperature followed by addition of NanoBRET Nano-Glo substrate following manufacturer's protocols. The plate is shaken for 30 sec followed by immediate measurement of donor emission (NanoBRET Blue at 460 nm) and acceptor emission (BRET Deep Red at 647 nm) for 0.5 s.
The assay setup is identical to “NanoBRET fold change experimental setup”. Instead of treating cells in […] with 10 μM compound, a 10-point titration starting at 20 μM is performed with a dilution factor of 1:4, covering α range of 20000 nM-0.076 nM.

KBM7 cells (wild-type) = test: KBM7 CTG EC50 assay (UBE2M wild-type); type: cell-based, human; settings: for EC50: Homo sapiens, KBM-7, 72 h incubation, CellTiter-Glo, read-out: KBM7 CTG EC50 (UBE2M wild-type) Activity Class; for Ratio UBE2M WT to KO: ratio of anti-proliferative activity in KBM7 wild-type versus UBE2M knock-out cells (fold)
Summary of the method: (§4)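 Wild-type KBM7 cells, or KBM7 cells with a hypomorphic UBE2M mutation that impairs Cullin-RING ligase activity, were treated for 72 h with compounds in a 10-point, 1:4 titration (0 to 20 μM). Viability was read by CellTiter-Glo 2.0 luminescence.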

[4] = test system: KBM7 cells harboring a hypomorphic UBE2M mutation; test: KBM7 CTG EC50 assay (UBE2M knock-out); type: cell-based; settings: Homo sapiens, KBM-7; 72 h incubation, CellTiter-Glo; read-out: KBM7 CTG EC50 (UBE2M knock-out) Activity Class
Summary of the method: as §4

CCNK = test: NanoLuc-CCNK degradation assay (HEK293T_Nluc_CCNK-tagged cells); type: cell-based; settings: for DC50 / NanoLuc-CCNK degradation DC50 Activity Class: 4 h incubation, HEK293T_Nluc_CCNK-tagged cells; for DC50: read-out: NanoLuc-CCNK degradation DC50 Activity Class
Summary of the method: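 HEK293T cells with nanoluciferase knocked in at the N-terminus of endogenous CCNK (CRISPR) exposed to a 10-point titration (0 to 10 μM, 1:4) in Opti-MEM I + 4% FBS for 4 h. Nano-Glo substrate then added and luminescence read as a measure of Cyclin K abundance.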

T1 sequence (Q9NYV4 whole entry): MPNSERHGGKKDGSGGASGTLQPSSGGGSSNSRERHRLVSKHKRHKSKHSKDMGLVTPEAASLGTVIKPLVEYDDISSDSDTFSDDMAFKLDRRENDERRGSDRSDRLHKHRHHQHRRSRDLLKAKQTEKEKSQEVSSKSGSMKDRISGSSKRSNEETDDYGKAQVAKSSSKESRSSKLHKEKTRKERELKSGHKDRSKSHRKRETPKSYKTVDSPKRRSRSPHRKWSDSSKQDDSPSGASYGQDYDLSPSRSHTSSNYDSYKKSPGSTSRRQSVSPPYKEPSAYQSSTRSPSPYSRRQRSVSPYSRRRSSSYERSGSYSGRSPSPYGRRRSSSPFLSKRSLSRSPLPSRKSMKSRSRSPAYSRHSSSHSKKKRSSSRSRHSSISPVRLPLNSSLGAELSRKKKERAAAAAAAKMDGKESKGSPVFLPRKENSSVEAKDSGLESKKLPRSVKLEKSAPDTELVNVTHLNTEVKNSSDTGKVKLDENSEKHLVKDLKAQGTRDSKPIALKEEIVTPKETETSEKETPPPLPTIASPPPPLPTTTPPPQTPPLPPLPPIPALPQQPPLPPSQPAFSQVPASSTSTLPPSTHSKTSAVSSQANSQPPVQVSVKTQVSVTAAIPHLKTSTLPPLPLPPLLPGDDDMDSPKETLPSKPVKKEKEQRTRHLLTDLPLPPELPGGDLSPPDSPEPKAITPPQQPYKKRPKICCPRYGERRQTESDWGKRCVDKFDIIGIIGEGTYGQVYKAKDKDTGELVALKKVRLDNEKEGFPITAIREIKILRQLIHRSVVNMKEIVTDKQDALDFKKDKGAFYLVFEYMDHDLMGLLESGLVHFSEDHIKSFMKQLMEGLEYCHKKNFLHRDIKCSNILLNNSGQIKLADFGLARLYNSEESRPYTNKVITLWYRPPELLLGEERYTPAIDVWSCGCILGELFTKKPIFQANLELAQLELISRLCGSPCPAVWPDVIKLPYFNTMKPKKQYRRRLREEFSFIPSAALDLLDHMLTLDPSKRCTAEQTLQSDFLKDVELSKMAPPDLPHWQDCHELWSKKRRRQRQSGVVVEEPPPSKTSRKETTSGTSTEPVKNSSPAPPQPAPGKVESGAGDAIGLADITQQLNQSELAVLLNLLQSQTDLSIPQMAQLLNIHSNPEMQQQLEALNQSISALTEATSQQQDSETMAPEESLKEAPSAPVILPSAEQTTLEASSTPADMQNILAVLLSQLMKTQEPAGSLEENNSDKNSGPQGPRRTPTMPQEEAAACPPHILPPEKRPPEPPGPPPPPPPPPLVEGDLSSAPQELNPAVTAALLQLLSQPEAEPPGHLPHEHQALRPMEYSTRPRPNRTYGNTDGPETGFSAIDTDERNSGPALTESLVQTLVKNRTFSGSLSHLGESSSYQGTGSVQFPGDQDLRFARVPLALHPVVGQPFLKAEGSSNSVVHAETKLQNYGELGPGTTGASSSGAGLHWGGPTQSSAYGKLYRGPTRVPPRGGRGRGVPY
T1 sequence (Q16531 whole entry): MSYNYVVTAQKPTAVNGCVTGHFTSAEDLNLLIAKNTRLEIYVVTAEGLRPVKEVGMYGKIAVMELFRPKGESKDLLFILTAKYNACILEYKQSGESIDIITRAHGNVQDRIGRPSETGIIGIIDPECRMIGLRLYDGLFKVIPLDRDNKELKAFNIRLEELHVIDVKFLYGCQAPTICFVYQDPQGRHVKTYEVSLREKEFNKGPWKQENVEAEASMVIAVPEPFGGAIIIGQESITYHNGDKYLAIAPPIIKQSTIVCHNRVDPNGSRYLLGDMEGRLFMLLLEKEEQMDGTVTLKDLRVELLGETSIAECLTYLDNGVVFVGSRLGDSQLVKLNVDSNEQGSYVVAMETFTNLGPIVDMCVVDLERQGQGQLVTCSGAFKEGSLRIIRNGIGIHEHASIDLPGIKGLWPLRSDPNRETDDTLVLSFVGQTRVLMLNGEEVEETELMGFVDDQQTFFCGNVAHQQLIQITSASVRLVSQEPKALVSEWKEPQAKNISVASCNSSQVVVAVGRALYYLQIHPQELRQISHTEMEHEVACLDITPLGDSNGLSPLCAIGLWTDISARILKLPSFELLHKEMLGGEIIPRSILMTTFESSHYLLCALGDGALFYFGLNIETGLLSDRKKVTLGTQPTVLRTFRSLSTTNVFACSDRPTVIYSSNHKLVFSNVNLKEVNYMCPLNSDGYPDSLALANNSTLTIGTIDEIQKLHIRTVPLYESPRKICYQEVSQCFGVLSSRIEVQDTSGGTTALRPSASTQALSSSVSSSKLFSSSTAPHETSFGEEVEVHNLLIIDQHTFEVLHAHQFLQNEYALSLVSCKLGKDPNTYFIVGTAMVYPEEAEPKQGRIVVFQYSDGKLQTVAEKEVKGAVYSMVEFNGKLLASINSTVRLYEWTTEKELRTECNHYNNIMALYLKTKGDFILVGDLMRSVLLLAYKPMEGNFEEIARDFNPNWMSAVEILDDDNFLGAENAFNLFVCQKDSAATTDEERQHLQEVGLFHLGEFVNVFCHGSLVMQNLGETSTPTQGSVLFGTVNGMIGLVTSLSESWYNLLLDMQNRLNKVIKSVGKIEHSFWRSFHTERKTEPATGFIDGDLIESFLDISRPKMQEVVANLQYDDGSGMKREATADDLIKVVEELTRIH
T1 sequence (O75909 whole entry partner): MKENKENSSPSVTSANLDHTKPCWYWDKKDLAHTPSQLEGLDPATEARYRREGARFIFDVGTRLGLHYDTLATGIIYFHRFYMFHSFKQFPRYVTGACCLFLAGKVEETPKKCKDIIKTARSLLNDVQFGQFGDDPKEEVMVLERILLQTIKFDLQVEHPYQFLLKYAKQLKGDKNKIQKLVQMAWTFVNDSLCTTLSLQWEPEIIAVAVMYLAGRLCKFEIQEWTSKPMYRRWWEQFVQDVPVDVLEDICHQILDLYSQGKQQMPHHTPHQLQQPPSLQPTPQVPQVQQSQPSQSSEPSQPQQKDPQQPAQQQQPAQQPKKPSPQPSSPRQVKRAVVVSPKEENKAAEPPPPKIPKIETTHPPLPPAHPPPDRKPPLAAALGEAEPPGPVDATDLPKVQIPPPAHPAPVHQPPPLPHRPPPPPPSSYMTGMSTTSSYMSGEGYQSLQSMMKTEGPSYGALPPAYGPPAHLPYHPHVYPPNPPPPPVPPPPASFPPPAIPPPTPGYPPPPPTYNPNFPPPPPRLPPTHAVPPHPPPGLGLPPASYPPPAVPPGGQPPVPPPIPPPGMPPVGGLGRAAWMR
Nanoluc_DDB1 (N-terminal Nanoluc luciferase, G4S linker, DDB1 (FL)), sequence (Q16531 other isoform, or with tags, fused parts or gaps): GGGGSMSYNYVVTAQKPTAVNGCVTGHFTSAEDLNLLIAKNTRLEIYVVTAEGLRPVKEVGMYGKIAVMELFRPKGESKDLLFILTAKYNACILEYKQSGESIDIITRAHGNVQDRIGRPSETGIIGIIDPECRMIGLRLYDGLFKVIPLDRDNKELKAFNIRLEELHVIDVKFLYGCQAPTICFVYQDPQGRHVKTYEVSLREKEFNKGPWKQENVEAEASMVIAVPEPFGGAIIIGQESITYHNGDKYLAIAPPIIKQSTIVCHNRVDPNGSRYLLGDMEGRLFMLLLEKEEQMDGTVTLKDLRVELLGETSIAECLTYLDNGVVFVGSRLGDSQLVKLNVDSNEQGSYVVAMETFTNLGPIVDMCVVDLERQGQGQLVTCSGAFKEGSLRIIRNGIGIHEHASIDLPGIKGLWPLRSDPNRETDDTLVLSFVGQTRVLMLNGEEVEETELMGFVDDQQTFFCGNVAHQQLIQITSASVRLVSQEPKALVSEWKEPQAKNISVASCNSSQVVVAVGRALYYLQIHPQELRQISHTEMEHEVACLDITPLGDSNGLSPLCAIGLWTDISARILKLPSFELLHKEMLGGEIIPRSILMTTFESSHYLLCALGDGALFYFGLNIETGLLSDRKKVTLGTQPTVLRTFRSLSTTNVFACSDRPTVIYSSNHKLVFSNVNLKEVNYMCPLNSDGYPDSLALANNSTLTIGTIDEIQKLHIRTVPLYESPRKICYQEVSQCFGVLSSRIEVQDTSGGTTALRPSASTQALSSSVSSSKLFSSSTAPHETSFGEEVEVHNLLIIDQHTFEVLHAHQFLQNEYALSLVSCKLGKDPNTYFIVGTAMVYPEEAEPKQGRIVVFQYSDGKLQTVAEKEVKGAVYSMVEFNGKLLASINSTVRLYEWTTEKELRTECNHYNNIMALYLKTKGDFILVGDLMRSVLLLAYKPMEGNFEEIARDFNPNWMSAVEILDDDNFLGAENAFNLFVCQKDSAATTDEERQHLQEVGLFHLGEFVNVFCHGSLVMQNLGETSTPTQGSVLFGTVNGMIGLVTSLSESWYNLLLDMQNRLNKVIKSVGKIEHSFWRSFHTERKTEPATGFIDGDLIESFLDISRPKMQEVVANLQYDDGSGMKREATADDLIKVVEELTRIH

| Compound | CC50 (KBM7_WT cells) [nM] | CC50 (UBE2M_MUT KBM7 cells) [nM] | CC50 (CUL4B_MUT KBM7 cells) [nM] | NanoBRET fold-change Activity Class [2] | EC50 (KBM7 cells (wild-type)) [nM] | EC50 [4] [nM] | Ratio UBE2M WT to KO (KBM7 cells (wild-type)) | also measured |
| --- | --- | --- | --- | --- | --- | --- | --- | --- |
| Cc1ccc(NC(=O)C2CC(=O)N(c3cccc(Cl)c3)C2)nc1 (centres unmarked) [Example Z9] | 2350 | > 10000 | > 10000 |  |  |  |  |  |
| Cc1cc(NC(C)C(=O)Nc2ccc(Cl)cn2)ccc1Br (centres unmarked) [Example Z6] | 1570 | 6800 | 6060 |  |  |  |  |  |
| Cc1ccc2c(CC(=O)Nc3nccs3)coc2c1C [Example Z1] | 7120 | > 10000 | > 10000 |  |  |  |  |  |
| O=C(NCCCNc1ccc(C(F)(F)F)cn1)c1ccccc1 [Example Z14] | 4690 | > 10000 | > 10000 |  |  |  |  |  |
| COc1ccc(C)cc1N1CC(C(=O)Nc2nc3ccccc3[nH]2)CC1=O (centres unmarked) [Example Z11] | 920 | 2750 | 2000 |  |  |  |  |  |
| CC[C@H](CO)Nc1nc(NCc2ccc(-c3ccccn3)cc2)c2ncn(C(C)C)c2n1 [CR8] |  |  |  |  |  |  |  | Cyclin K degradation, in words (Cyclin K): cause Cyclin K degradation |
| HaloTag_CDK12 (N-terminal HaloTag, G4S linker, CDK12 (713-1052)) (from UniProt Q9NYV4 713-1052) (HEK293T cells) |  |  |  |  |  |  |  | NanoBRET fold increase [1]: 3 to 4 fold |
| Cc1cnc(NC(=O)C2CC(=O)N(c3cccc(Cl)c3Cl)C2)s1 (centres unmarked) [Example Z13] | 1290 | 6990 | 5680 |  |  |  |  |  |
| O=C(CCn1cnc2ccccc2c1=O)Nc1ccc(Br)cn1 [Example Z7] | 1810 | > 10000 | > 10000 |  |  |  |  |  |
| Cc1cn2nc(NCCNc3ccc(C#N)cn3)sc2n1 [Example Z5] | 3750 | > 10000 | > 10000 |  |  |  |  |  |
| CN(C)C/C=C/C(=O)Nc1ccc(C(=O)N2CCC[C@@H](Nc3ncc(Cl)c(-c4c[nH]c5ccccc45)n3)C2)cc1 [THZ-531] |  |  |  |  |  |  |  | Cyclin K degradation, in words (Cyclin K): did not cause cyclin K degradation |
| O=C(Nc1nc2c(s1)CCCC2)C1CCCN1C(=O)c1ccccc1 (centres unmarked) [Example Z3] | 11800 | > 10000 | > 10000 |  |  |  |  |  |
| O=C(Cc1ccc2ncccc2c1)Nc1ncc(C(F)(F)F)s1 [Example 3-14, 2-(quinolin-6-yl)-N-(5-(trifluoromethyl)thiazol-2-yl)acetamide] |  |  |  | A (greater than 4-fold increase) | ≤ 250 | ≤ 250 |  | activity in NanoBRET assay (ternary complex formation), in words [3]: extremely high activity; EC50 [3]: ≤ 250 nM; activity in KBM7 cytotoxicity assay, in words (KBM7 cells (wild-type); KBM7): extremely potent activity; activity in NanoLuc CCNK degradation assay, in words (CCNK): extremely high activity; DC50 (CCNK): ≤ 100 nM |
| O=C(Cc1c[nH]c2ncccc12)Nc1ncc(C(F)(F)F)s1 [Example 3-38, 2-(1H-pyrrolo[2,3-b]pyridin-3-yl)-N-(5-(trifluoromethyl)thiazol-2-yl)acetamide] |  |  |  | B (3-4 fold increase) | 500 to 1000 | > 10000 | >10 | NanoBRET EC50 Activity Class [3]: C (1.0 μM≤EC50<0.50 μM); DC50 (CCNK): > 10000 nM |
| CC(C)c1cnc(NC(=O)Cc2cn3cc(F)ccc3n2)s1 [Example 3-4, 2-(6-fluoroimidazo[1,2-a]pyridin-2-yl)-N-(5-isopropylthiazol-2-yl)acetamide] |  |  |  | A (greater than 4-fold increase) | ≤ 250 | 1000 to 10000 | 82.6 | EC50 [3]: ≤ 250 nM; NanoLuc-CCNK degradation DC50 Activity Class (CCNK): B (0.50 μM≤DC50<0.10 μM) |
| Cc1ccc2c(CC(=O)Nc3ccc(Br)cn3)coc2c1C [Example 3-53, N-(5-bromopyridin-2-yl)-2-(6,7-dimethylbenzofuran-3-yl)acetamide] |  |  |  | B (3-4 fold increase) | ≤ 250 | 1000 to 10000 | 22.7 | EC50 [3]: > 10000 nM; NanoLuc-CCNK degradation DC50 Activity Class (CCNK): B (0.50 μM≤DC50<0.10 μM) |
| O=C1CC(CNc2ncc(Cl)cn2)CN1CCc1ccccc1 (centres unmarked) [Example Z10] | 7820 | > 10000 | > 10000 |  |  |  |  |  |
| O=C(Cc1cn2cc(F)ccc2n1)Nc1ccc(C2CC2)cn1 [Example 3-62, N-(5-cyclopropylpyridin-2-yl)-2-(6-fluoroimidazo[1,2-a]pyridin-2-yl)acetamide] |  |  |  | A (greater than 4-fold increase) | ≤ 250 | 250 to 500 | 50.8 | EC50 [3]: ≤ 250 nM; DC50 (CCNK): ≤ 100 nM |
| COc1ccc2cc(C(C)C(=O)Nc3ncc(C)s3)ccc2c1 (centres unmarked) [Example Z2] | 1350 | > 10000 | > 10000 |  |  |  |  |  |
| O=C(Nc1ncc(C(F)(F)F)s1)C1CC(=O)N(c2cccc(Cl)c2)C1 (centres unmarked) [Example 3-19, 1-(3-chlorophenyl)-5-oxo-N-(5-(trifluoromethyl)thiazol-2-yl)pyrrolidine-3-carboxamide] |  |  |  | A (greater than 4-fold increase) | ≤ 250 | ≤ 250 | 9.1 | NanoBRET EC50 Activity Class [3]: B (0.50 μM≤EC50≤0.25 μM); DC50 (CCNK): ≤ 100 nM |
| Cc1cnc(NC(=O)Cc2coc3c(C)c(C)ccc23)s1 [Example 3-1, 2-(6,7-dimethylbenzofuran-3-yl)-N-(5-methylthiazol-2-yl)acetamide] |  |  |  | B (3-4 fold increase) | ≤ 250 | 500 to 1000 | 25.3 | EC50 [3]: ≤ 250 nM; NanoLuc-CCNK degradation DC50 Activity Class (CCNK): B (0.50 μM≤DC50<0.10 μM) |
| Cc1ccc2c(CC(=O)Nc3ncc(C4CC4)s3)coc2c1C [Example 3-42, N-(5-cyclopropylthiazol-2-yl)-2-(6,7-dimethylbenzofuran-3-yl)acetamide] |  |  |  | A (greater than 4-fold increase) | ≤ 250 | ≤ 250 | 8.5 | NanoBRET EC50 Activity Class [3]: C (1.0 μM≤EC50<0.50 μM); DC50 (CCNK): ≤ 100 nM |
